Holding throughout (experiment): cells
Common to all, as to assay type: cell-based

Assay [1] concerns influenza virus minigenome (PB2, PB1, PA, NP) RNP_Hubei in 293T cells. The conditions noted are these: unidentified influenza virus, HEK-293T, 48 h, read-out: RNP_Hubei EC50.
Assay [2] deals with influenza A virus minigenome (PB2, PB1, PA, NP) RNP_Alaska in 293T cells. The settings on record: HEK-293T, 48 h, read-out: RNP_Alaska EC50.
For assay [3], the system named is influenza A virus minigenome (PB2, PB1, PA, NP) RNP_CAL in 293T cells. The settings on record: HEK-293T, 48 h, read-out: RNP_CAL_EC50.

As for `O=c1cnn2c(c1O)-c1nccn1C[C@@H]2[C@@H](c1ccc(F)cc1)c1ccc(Cl)cc1` [Example 33, (S)-6-((S)-(4-chlorophenyl)(4-fluorophenyl)methyl)-11-hydroxy-5,6-dihydro-10H-imidazo[2′,1′:3,4]pyrazino[1,2-b]pyridazin-10-one], the EC50 in assay [1] was determined as 0.27 µM; in assay [2], 0.087 µM; in assay [3] it was 0.11 µM.
On to `O=c1cnn2c(c1O)-c1nccn1C[C@@H]2[C@@H](c1ccc(F)cc1)c1cccc(C(F)(F)F)c1` [Example 21, (S)-6-((S)-(4-fluorophenyl)(3-(trifluoromethyl)phenyl)methyl)-11-hydroxy-5,6-dihydro-10H-imidazo[2′,1′:3,4]pyrazino[1,2-b]pyridazin-10-one], for which the EC50 in assay [1] was found to be 0.11 µM; in assay [2], 0.071 µM; in assay [3], 0.052 µM.
With `CC1(C)N(C(c2ccccc2)c2ccccc2)n2ccc(=O)c(O)c2-c2nccn21` [Example 75, 6-benzhydryl-11-hydroxy-5,5-dimethyl-5,6-dihydro-10H-imidazo[1,2-d]pyrido[2,1-f][1,2,4]triazin-10-one], the results for the EC50 in assay [1], in assay [2] and in assay [3] were 0.4 µM, 0.48 µM and 0.3 µM, respectively.
Turning to `O=c1cnn2c(c1O)-c1nccn1CC2C(c1cccc(Cl)c1)c1cccc(Cl)c1` (stereo not drawn) [Example 11, 6-(bis(3-chlorophenyl)methyl)-11-hydroxy-5H-imidazo[2′,1′:3,4]pyrazino[1,2-b]pyridazin-10(6H)-one], the EC50 is 0.09 µM in assay [1], 0.16 µM in assay [2] and 0.08 µM in assay [3].
Taken in the same sequence, the figures for `O=c1ccn2c(c1O)-c1ncc(C3CC3)n1C[C@@H]2C(c1ccccc1)c1ccccc1` [Example 8, (S)-6-benzhydryl-3-cyclopropyl-11-hydroxy-5H-imidazo[1,2-a]pyrido[2,1-c]pyrazin-10(6H)-one] were 0.53 µM, 0.49 µM and 0.15 µM.
Regarding `O=c1ccn2c(c1O)-c1nccn1C[C@@H]2C(c1ccccc1)c1ccccc1` [Example 4, (S)-6-Benzhydryl-11-hydroxy-5H-imidazo[1,2-a]pyrido[2,1-c]pyrazin-10(6H)-one], the figures for the EC50 in assay [1], in assay [2] and in assay [3] were 0.09 µM, 0.18 µM and 0.16 µM, respectively.
Taken in the same sequence, the figures for `O=c1ccn2c(c1O)-c1ncc(Br)n1C[C@@H]2C(c1ccccc1)c1ccccc1` [Example 7, (S)-6-benzhydryl-3-bromo-11-hydroxy-5H-imidazo[1,2-a]pyrido[2,1-c]pyrazin-10(6H)-one] were 0.16 µM, 0.14 µM and 0.17 µM.
The matching figures for `O=c1cnn2c(c1O)-c1nccn1C[C@@H]2[C@H](c1cccc(F)c1)c1ccc(F)cc1Br` [Example 36, (S)-6-((R)-(2-bromo-4-fluorophenyl)(3-fluorophenyl)methyl)-11-hydroxy-5,6-dihydro-10H-imidazo[2′,1′:3,4]pyrazino[1,2-b]pyridazin-10-one]: 0.063 µM, 0.021 µM and 0.027 µM.
On to `O=c1cnn2c(c1O)-c1nccn1C[C@@H]2[C@@H](c1ccc(F)cc1)c1ccc(C(F)(F)F)cc1` [Example 32, (S)-6-((R)-(4-fluorophenyl)(4-(trifluoromethyl)phenyl)methyl)-11-hydroxy-5,6-dihydro-10H-imidazo[2′,1′:3,4]pyrazino[1,2-b]pyridazin-10-one], for which the EC50 turned out to be 0.72 µM in assay [1], 0.28 µM in assay [2] and 0.25 µM in assay [3].
Consider `O=c1ccn2c(c1O)-c1nccn1C1(COC1)N2C1c2ccccc2CSc2ccccc21` (stereo not drawn) [Example 80, 6-(6,11-dihydrodibenzo[b,e]thiepin-11-yl)-11-hydroxy-6H,10H-spiro[imidazo[1,2-d]pyrido[2,1-f][1,2,4]triazine-5,3′-oxetan]-10-one], for which the EC50 amounted to 0.027 µM in assay [1], 0.17 µM in assay [2] and 0.01 µM in assay [3].
As for `O=c1cnn2c(c1O)-c1ncc(CO)n1C[C@@H]2C(c1ccc(F)cc1)c1ccc(F)cc1` [Example 50, (S)-6-(bis(4-fluorophenyl)methyl)-11-hydroxy-3-(hydroxymethyl)-5,6-dihydro-10H-imidazo[2′,1:3,4]pyrazino[1,2-b]pyridazin-10-one], the EC50 in assay [1] worked out at 0.7 µM; in assay [2] it was 0.43 µM; in assay [3] it was 0.1 µM.
Take `O=c1ccn2c(c1O)-c1ncc(-c3cn[nH]c3)n1C[C@@H]2C(c1ccccc1)c1ccccc1` [Example 52, (S)-6-benzhydryl-11-hydroxy-3-(1H-pyrazol-4-yl)-5,6-dihydro-10H-imidazo[1,2-a]pyrido[2,1-c]pyrazin-10-one]: the EC50 came out at 0.97 µM in assay [1], 5.1 µM in assay [2] and 8.3 µM in assay [3].
`CC(O)c1cnc2n1C[C@H](C(c1ccccc1)c1ccccc1)n1ccc(=O)c(O)c1-2` (stereo partly drawn) [Example 55, (6S)-6-benzhydryl-11-hydroxy-3-(1-hydroxyethyl)-5H-imidazo [1,2-a]pyrido[2,1-c]pyrazin-10(6H)-one]: the EC50 was 6.6 µM in assay [1], 2.6 µM in assay [2] and 1.7 µM in assay [3].
Taken in the same sequence, the figures for `CC(=O)Oc1c2n(ncc1=O)[C@@H](C(c1ccc(F)cc1)c1ccc(F)cc1)Cn1ccnc1-2` [Example 85, (S)-6-(bis(4-fluorophenyl)methyl)-10-oxo-5,6-dihydro-10H-imidazo[2′,1′:3,4]pyrazino[1,2-b]pyridazin-11-yl acetate] were 0.049 µM, 0.019 µM and 0.022 µM.
`Cc1ccccc1[C@H](c1ccc(F)cc1)[C@H]1Cn2c(CO)cnc2-c2c(O)c(=O)cnn21` [Example 51, (S)-6-((S)-(4-fluorophenyl)(o-tolyl)methyl)-11-hydroxy-3-(hydroxymethyl)-5,6-dihydro-10H-imidazo[2′,1′:3,4]pyrazino[1,2-b]pyridazin-10-one]: the EC50 in assay [1] was found to be 0.16 µM; in assay [2], 0.23 µM; in assay [3], 0.09 µM.
Turning to `O=c1ccn2c(c1O)-c1ocnc1CN2C(c1ccccc1)c1ccccc1` [Example 84, 5-benzhydryl-10-hydroxy-4,5-dihydro-9H-oxazolo[5,4-d]pyrido[1,2-b]pyridazin-9-one], the values for the EC50 in assay [1], in assay [2] and in assay [3] were 16 µM, 14 µM and 11 µM, respectively.
Take `CC(C)CC(=O)Oc1c2n(ncc1=O)[C@@H](C(c1ccc(F)cc1)c1ccc(F)cc1)Cn1ccnc1-2` [Example 87, (S)-6-(bis(4-fluorophenyl)methyl)-10-oxo-5,6-dihydro-10H-imidazo[2′,1′:3,4]pyrazino[1,2-b]pyridazin-11-yl 3-methylbutanoate]: the EC50 was 0.043 µM in assay [1], 0.027 µM in assay [2] and 0.021 µM in assay [3].
Regarding `O=c1ccn2c(c1O)-c1ncc(CNC3CCOCC3)n1C[C@@H]2C(c1ccccc1)c1ccccc1` [Example 65, (S)-6-benzhydryl-11-hydroxy-3-(((tetrahydro-2H-pyran-4-yl)amino)methyl)-5,6-dihydro-10H-imidazo[1,2-a]pyrido[2,1-c]pyrazin-10-one], the results for the EC50 in assay [1], in assay [2] and in assay [3] were 4.9 µM, 4.8 µM and 3.5 µM, respectively.
Taken in the same sequence, the figures for `Cc1cccc([C@H](c2ccc(F)cc2)[C@H]2Cn3ccnc3-c3c(O)c(=O)cnn32)c1` [Example 38, (S)-6-((S)-(4-fluorophenyl)(m-tolyl)methyl)-11-hydroxy-5,6-dihydro-10H-imidazo[2′,1′:3,4]pyrazino[1,2-b]pyridazin-10-one] were 0.097 µM, 0.043 µM and 0.049 µM.
As to `O=c1cnn2c(c1O)-c1nccn1CC2C(c1ccccc1)c1ccccc1` (stereo not drawn) [Example 1, 6-Benzhydryl-11-hydroxy-5H-imidazo[2′,1′:3,4]pyrazino[1,2-b]pyridazin-10(6H)-one], the figures for the EC50 in assay [1], in assay [2] and in assay [3] were 0.11 µM, 0.13 µM and 0.11 µM, respectively.
In the case of `O=c1cnn2c(c1O)-c1nccn1CC2C(c1ccc(Cl)cc1)c1ccc(Cl)cc1` (stereo not drawn) [Example 10, 6-(bis(4-chlorophenyl)methyl)-11-hydroxy-5H-imidazo[2′,1′:3,4]pyrazino[1,2-b]pyridazin-10(6H)-one], the EC50 was 0.82 µM in assay [1], 0.29 µM in assay [2] and 0.32 µM in assay [3].
`CCC1N(C(c2ccccc2)c2ccccc2)n2ccc(=O)c(O)c2-c2nccn21` (stereo not drawn) [Example 78, 6-benzhydryl-5-ethyl-11-hydroxy-5,6-dihydro-10H-imidazo[1,2-d]pyrido[2,1-f][1,2,4]triazin-10-one]: the EC50 was determined as 0.34 µM in assay [1], 0.25 µM in assay [2] and 0.18 µM in assay [3].
With `O=c1cnn2c(c1O)-c1nccn1C[C@H]2C(c1cccc(Cl)c1)c1cccc(Cl)c1` [Example 16, (R)-6-(bis(3-chlorophenyl)methyl)-11-hydroxy-5H-imidazo[2′,1′:3,4] pyrazino [1,2-b]pyridazin-10(6H)-one], the EC50 was 0.95 µM in assay [1], 0.96 µM in assay [2] and 0.82 µM in assay [3].
As to `O=c1ccn2c(c1O)-c1nccn1C(C1CC1)N2C1c2ccccc2CSc2ccccc21` (stereo not drawn) [Example 76, 5-cyclopropyl-6-(6,11-dihydrodibenzo[b,e]thiepin-11-yl)-11-hydroxy-5,6-dihydro-10H-imidazo[1,2-d]pyrido[2,1-f][1,2,4]triazin-10-one], the EC50 in assay [1] is 0.67 µM; in assay [2], 0.43 µM; in assay [3], 0.16 µM.
Turning to `O=c1cnn2c(c1O)-c1nccn1C[C@@H]2C(c1ccc(F)cc1)c1ccc(F)cc1` [Example 22, (S)-6-(bis(4-fluorophenyl)methyl)-11-hydroxy-5,6-dihydro-10H-imidazo[2′,1′:3,4]pyrazino[1,2-b]pyridazin-10-one], the EC50 is 0.01 µM in assay [1], 0.027 µM in assay [2] and 0.082 µM in assay [3].

These data come from patent US11453677B2 (priority 2016, dated 2022).
